Values quoted from earlier work in patent US6673767B1, “Gel composition and methods” (Alza Corporation, priority 1996, dated 2004).

Conditions: for Water Miscibility: solvent in water (Merck)

Row | Compound | Water Miscibility | reported solubility in water (solvent in water)
1 | O=C(OCc1ccccc1)c1ccccc1 [Benzyl Benzoate, benzyl benzoate] | insol. in water (Merck) | –
2 | CN1CCCC1=O [NMP, N-methyl-2-pyrrolidone] | misc. with water (Merck) | –
3 | CC(=O)OCC(COC(C)=O)OC(C)=O [Triacetin, triacetin] | 7% sol. in water (Merck) | 7.17 grams in 100 ml of water
